According to patent US11498896B2 (The Broad Institute, Inc., priority 2014, dated 2022):

How the values were obtained:
[1] = target: T1, human D2R/β-arrestin (Homo sapiens (Human), UniProt P14416); experiment: cell-based; details: cAMP Antagonist, CHO-K1 cells expressing human D2R/β-arrestin; antagonist mode, 2.5 μM forskolin and 2.7 nM quinpirole
[2] = target: T1, human D2R/β-arrestin; experiment: Gi/cAMP agonist assay (Lance Ultra cAMP, forskolin); assay type: cell-based; details: CHO-K1 cells expressing human D2R/β-arrestin; agonist mode, 2.5 μM forskolin
Protocol: Eu-cAMP tracer solution (10 μl, PerkinElmer, 360 μl of Tracer in 17.64 ml kit buffer) and ULight-anti-cAMP solution (10 μl, 120 μL antibody in 17.88 ml kit buffer) was then added to each well.

[3] = target: T1, human D2R/β-arrestin; experiment: cell-based; details: β-arrestin Antagonist, CHO-K1 cells expressing human D2R/β-arrestin; antagonist mode, quinpirole 130 nM
Protocol: Cells were prepared for assays by growing cultures for up to 2 weeks (from about 6-20 passages). A vial of frozen cells was thawed in a water bath held at 37° C. The cells were then transferred into a 50 ml tube with 10 ml growth media. The vial was rinsed with growth media and the contents transferred to the 50 ml tube. The 50 ml tube was centrifuged at 1200 rpm for 5 minutes at room temperature. […] When the cells reached about 90% confluence (approximately 3 days between passages), the cells were passaged and used for either the agonist or antagonist assays as described below.
The cells were prepared for β-arrestin assays as described above. The assays were performed using a PathHunter® β-Arrestin Detecting Kit (DiscoveRX). The cells were grown on 225 mm dishes, then washed once with 1×PBS (Cellgro), followed by digestion with 2.5 ml 1× Detachment reagent (DRX 92-0009) for approximately 2 minutes.

[4] = target: T1, human D2R/β-arrestin; experiment: β-arrestin agonist assay (PathHunter); assay type: cell-based; details: CHO-K1 cells expressing human D2R/β-arrestin; agonist mode
Protocol: The detection reagent (9.6 μL, Buffer:Emerald II:Galactor-Star in a 19:5:1 ratio, i.e., 14.06 mL:3.7 mL:0.74 mL=18.5 mL) was then added to the agonist plates.

T1 sequence (P14416 whole entry): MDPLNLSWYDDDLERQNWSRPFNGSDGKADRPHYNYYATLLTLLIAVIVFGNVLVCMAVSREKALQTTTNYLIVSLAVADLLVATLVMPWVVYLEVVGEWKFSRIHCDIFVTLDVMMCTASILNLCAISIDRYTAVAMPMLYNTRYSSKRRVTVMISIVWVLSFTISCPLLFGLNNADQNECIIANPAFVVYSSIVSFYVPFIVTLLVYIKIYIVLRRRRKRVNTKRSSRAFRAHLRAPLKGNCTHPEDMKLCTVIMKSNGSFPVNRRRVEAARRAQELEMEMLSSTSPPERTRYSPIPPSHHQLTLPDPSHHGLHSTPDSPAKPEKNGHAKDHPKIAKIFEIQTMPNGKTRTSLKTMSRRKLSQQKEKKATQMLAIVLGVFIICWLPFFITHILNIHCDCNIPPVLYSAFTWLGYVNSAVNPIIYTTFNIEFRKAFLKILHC

COc1cc2c(cc1O)C1Cc3ccc(O)c(OC)c3CN1CC2 (racemic) [D,L-Stepholidine, reference compound]
IC50 [1]: < 0.1 µM
EC50 [2]: > 30 µM
IC50 [3]: < 0.1 µM
EC50 [4]: > 30 µM

CNC(=O)C1(C)CCN(CC2COc3ccccc3O2)CC1 (single isomer, unassigned) [Compound 202a, 1-((2,3-dihydrobenzo[b][1,4]dioxin-2-yl)methyl)-N,4-dimethylpiperidine-4-carboxamide]
IC50 [1]: 1 to 10 µM
EC50 [2]: 0.1 to 1 µM
IC50 [3]: 10 to 30 µM
EC50 [4]: > 30 µM

CC1(C(=O)NC2CC2)CCN(CC2COc3ccccc3O2)CC1 (single isomer, unassigned) [Compound 203a, N-cyclopropyl-1-((2,3-dihydrobenzo[b][1,4]dioxin-2-yl)methyl)-4-methylpiperidine-4-carboxamide]
IC50 [1]: 1 to 10 µM
EC50 [2]: < 0.1 µM
IC50 [3]: 0.1 to 1 µM
EC50 [4]: > 30 µM

CC1(C(=O)NC2CC2)CCN(CC2COc3ccccc3O2)CC1 (single isomer, unassigned) [Compound 203b, N-cyclopropyl-1-((2,3-dihydrobenzo[b][1,4]dioxin-2-yl)methyl)-4-methylpiperidine-4-carboxamide]
IC50 [1]: 10 to 30 µM
EC50 [2]: > 30 µM
IC50 [3]: 10 to 30 µM
EC50 [4]: > 30 µM

CC1(C(=O)Nc2ccccc2)CCN(CC2COc3ccccc3O2)CC1 (single isomer, unassigned) [Compound 204a, 1-((2,3-dihydrobenzo[b][1,4]dioxin-2-yl)methyl)-4-methyl-N-phenylpiperidine-4-carboxamide]
IC50 [1]: 1 to 10 µM
EC50 [2]: > 30 µM
IC50 [3]: 1 to 10 µM
EC50 [4]: > 30 µM

FC(F)(F)c1ccccc1OCCN1CCC2(CC1)CC2c1ccc(Cl)cc1 (single isomer, unassigned) [Compound 216a, 1-(4-chlorophenyl)-6-(2-(2-(trifluoromethyl)phenoxy)ethyl)-6-azaspiro[2.5]octane]
IC50 [1]: 1 to 10 µM
EC50 [2]: > 30 µM
IC50 [3]: 1 to 10 µM
EC50 [4]: > 30 µM

FC(F)(F)c1ccccc1OCCN1CCC2(CC1)CC2c1ccc(Cl)cc1 (single isomer, unassigned) [Compound 216b, 1-(4-chlorophenyl)-6-(2-(2-(trifluoromethyl)phenoxy)ethyl)-6-azaspiro[2.5]octane]
IC50 [1]: > 30 µM
EC50 [2]: 10 to 30 µM
IC50 [3]: 10 to 30 µM
EC50 [4]: > 30 µM

COc1ccccc1OCCN1CCC(C)(Oc2ccc(Cl)cc2)C1 (stereo not drawn) [Compound 2, 3-(4-Chlorophenoxy)-1-(2-(2-methoxyphenoxy)ethyl)-3-methyl pyrrolidine]
IC50 [1]: 0.1 to 1 µM
EC50 [2]: > 30 µM
IC50 [3]: 0.1 to 1 µM
EC50 [4]: > 30 µM

CC1(Oc2ccc(Cl)cc2)CCN(CCCCOc2ccccc2)C1 (stereo not drawn) [Compound 3, 3-(4-chlorophenoxy)-3-methyl-1-(4-phenoxybutyl)pyrrolidine]
IC50 [1]: 0.1 to 1 µM
EC50 [2]: > 30 µM
IC50 [3]: 1 to 10 µM
EC50 [4]: > 30 µM

CC1(Oc2ccc(Cl)cc2)CCN(CCCOc2ccccc2)C1 (stereo not drawn) [Compound 4, 3-(4-chlorophenoxy)-3-methyl-1-(3-phenoxypropyl)pyrrolidine]
IC50 [1]: 0.1 to 1 µM
EC50 [2]: > 30 µM
IC50 [3]: 1 to 10 µM
EC50 [4]: > 30 µM

CC1(Oc2ccc(Cl)cc2)CCN(CCOc2ccccc2Cl)C1 (stereo not drawn) [Compound 5, 3-(4-chlorophenoxy)-1-(2-(2-chlorophenoxy)ethyl)-3-methylpyrrolidine]
IC50 [1]: < 0.1 µM
EC50 [2]: > 30 µM
IC50 [3]: 0.1 to 1 µM
EC50 [4]: > 30 µM

Cc1ccccc1OCCN1CCC(C)(Oc2ccc(Cl)cc2)C1 (stereo not drawn) [Compound 6, 3-(4-chlorophenoxy)-3-methyl-1-(2-(o-tolyloxy)ethyl)pyrrolidine]
IC50 [1]: 0.1 to 1 µM
EC50 [2]: > 30 µM
IC50 [3]: 1 to 10 µM
EC50 [4]: > 30 µM

CC1(Oc2ccc(Cl)cc2)CCN(CCOc2ccccc2C(F)(F)F)C1 (stereo not drawn) [Compound 8, 3-(4-chlorophenoxy)-3-methyl-1-(2-(2-(trifluoromethyl)phenoxy)ethyl) pyrrolidine]
IC50 [1]: 0.1 to 1 µM
EC50 [2]: > 30 µM
IC50 [3]: 1 to 10 µM
EC50 [4]: > 30 µM

CC1(Oc2ccc(Cl)cc2)CCN(CCOc2ccccc2F)C1 (stereo not drawn) [Compound 9, 3-(4-chlorophenoxy)-1-(2-(2-fluorophenoxy)ethyl)-3-methylpyrrolidine]
IC50 [1]: > 30 µM
EC50 [2]: < 0.1 µM
IC50 [3]: 0.1 to 1 µM
EC50 [4]: > 30 µM

CC1(Oc2ccc(Cl)cc2)CCN(CCOc2cccc(Cl)c2)C1 (stereo not drawn) [Compound 10, 3-(4-chlorophenoxy)-1-(2-(3-chlorophenoxy)ethyl)-3-methylpyrrolidine]
IC50 [1]: > 30 µM
EC50 [2]: < 0.1 µM
IC50 [3]: 1 to 10 µM
EC50 [4]: > 30 µM

Cc1cccc(OCCN2CCC(C)(Oc3ccc(Cl)cc3)C2)c1 (stereo not drawn) [Compound 11, 3-(4-chlorophenoxy)-3-methyl-1-(2-(m-tolyloxy)ethyl)pyrrolidine]
IC50 [1]: 0.1 to 1 µM
EC50 [2]: < 0.1 µM
IC50 [3]: 1 to 10 µM
EC50 [4]: > 30 µM

CC1(Oc2ccc(Cl)cc2)CCN(CCOc2cccnc2)C1 (stereo not drawn) [Compound 12, 3-(2-(3-(4-chlorophenoxy)-3-methylpyrrolidin-1-yl)ethoxy)pyridine]
IC50 [1]: > 30 µM
EC50 [2]: < 0.1 µM
IC50 [3]: > 30 µM
EC50 [4]: < 0.1 µM

CC1(Oc2ccc(Cl)cc2)CCN(CCOc2cccc(C(F)(F)F)c2)C1 (stereo not drawn) [Compound 13, 3-(4-chlorophenoxy)-3-methyl-1-(2-(3-(trifluoromethyl)phenoxy)ethyl) pyrrolidine]
IC50 [1]: 0.1 to 1 µM
EC50 [2]: > 30 µM
IC50 [3]: 1 to 10 µM
EC50 [4]: > 30 µM

CC1(Oc2ccc(Cl)cc2)CCN(CCOc2ccc(F)cc2)C1 (stereo not drawn) [Compound 14, 3-(4-chlorophenoxy)-1-(2-(4-fluorophenoxy)ethyl)-3-methylpyrrolidine]
IC50 [1]: 0.1 to 1 µM
EC50 [2]: < 0.1 µM
IC50 [3]: 1 to 10 µM
EC50 [4]: > 30 µM

CC1(Oc2ccc(Cl)cc2)CCN(CCOc2ccc(Cl)cc2)C1 (stereo not drawn) [Compound 15, 3-(4-chlorophenoxy)-1-(2-(4-chlorophenoxy)ethyl)-3-methylpyrrolidine]
IC50 [1]: 1 to 10 µM
EC50 [2]: < 0.1 µM
IC50 [3]: 1 to 10 µM
EC50 [4]: > 30 µM

Cc1ccc(OCCN2CCC(C)(Oc3ccc(Cl)cc3)C2)cc1 (stereo not drawn) [Compound 16, 3-(4-Chlorophenoxy)-3-methyl-1-(2-(p-tolyloxy)ethyl)pyrrolidine]
IC50 [1]: > 30 µM
EC50 [2]: 0.1 to 1 µM
IC50 [3]: 1 to 10 µM
EC50 [4]: > 30 µM

CC1(Oc2ccc(Cl)cc2)CCN(CCOc2ccc(C(F)(F)F)cc2)C1 (stereo not drawn) [Compound 17, 3-(4-chlorophenoxy)-3-methyl-1-(2-(4-(trifluoromethyl)phenoxy)ethyl) pyrrolidine]
IC50 [1]: 1 to 10 µM
EC50 [2]: > 30 µM
IC50 [3]: 10 to 30 µM
EC50 [4]: > 30 µM

CC1(Oc2ccc(Cl)cc2)CCN(CCOc2ccc3ncsc3c2)C1 (stereo not drawn) [Compound 18, 6-(2-(3-(4-chlorophenoxy)-3-methylpyrrolidin-1-yl)ethoxy)benzo[d]thiazole]
IC50 [1]: > 30 µM
EC50 [2]: 0.1 to 1 µM
IC50 [3]: 1 to 10 µM
EC50 [4]: > 30 µM

COc1cccc(OCCN2CCC(C)(Oc3ccc(Cl)cc3)C2)c1 (stereo not drawn) [Compound 19, 3-(4-chlorophenoxy)-1-(2-(3-methoxyphenoxy)ethyl)-3-methyl pyrrolidine]
IC50 [1]: > 30 µM
EC50 [2]: < 0.1 µM
IC50 [3]: > 30 µM
EC50 [4]: 1 to 10 µM
